Results as given in patent publication US6632665B1, “Human gene encoding 3′-5′ exonuclease” (Wake Forest University, priority 1999, dated 2003).
One block for each molecule: values may come before it.

Assays:
[1] = system: HL-60 cells; assay: araC incorporation into DNA and total DNA synthesis in 6-MP pretreated HL-60 cells; format: cell-based
Protocol: (§1) HL-60 cells were incubated with 6-mercaptopurine (6-MP) to allow intracellular levels of thioinosine monophosphate (TIMP) to accumulate. […] Cytoplasmic 6-MP is converted to an active nucleotide metabolite TIMP by the action of hypoxanthine phosphoribosyltransferase (HPRT). […] Intracellular accumulation of TIMP was determined by HPLC [Zimm, et al., Cancer Res. 45:4156-4161 (1985)]. Upon addition of araC, the amount of araC incorporated into DNA increased and total DNA synthesis decreased in cells pretreated with 6-MP relative to untreated cells. At peak intracellular levels of TIMP, araC incorporation into DNA relative to total DNA synthesis was 20-fold greater in the 6-MP treated cells.
(§2) Logarithmically growing cultures of HL-60 cells are incubated with 6-MP for varying times. The cultures are divided into two groups. The first group is treated with 1 μM ^3H-araC for 1 hour to measure araC in DNA. The second group is treated with ^3H-thymidine and 1 μM unlabeled araC for 1 hour to measure total DNA synthesis. Cells are pelleted, washed with PBS, and ^3H-araC or ^3H-thymidine in acid insoluble material is determined by scintillation counting. To measure araCTP in HL-60 cells, 6-MP treated samples are incubated with 1 μM ^3H-araC. Cells are pelleted and washed with PBS. The acid soluble nucleotides are collected and separated by HPLC (Partisil 10 SAX, Whatman). The fraction containing ^3HaraCTP is quantified by scintillation counting.

[2] = system: HL-60 cells; assay: cell killing by growth curves and clonogenic assays of treated cells; format: cell-based; conditions: 6-MP pretreatment plus araC
[3] = system: HL-60 cells; assay: intracellular accumulation of TIMP by HPLC; format: cell-based; conditions: HL-60 cells pretreated with 50 or 100 μM 6-MP
Protocol: as §1

[4] = system: HL-60 cells; assay: intracellular araCTP quantified by HPLC in 6-MP treated cells; format: cell-based; conditions: cells treated with 6-MP up to twelve hours, harvested one hour after addition of araC
Protocol: The increased incorporation of araC into the DNA was not the result of increased accumulation of araC in the 6-MP treated cells. Cells were treated with 6-MP for varying times for up to twelve hours followed by incubation with […]. At time points up to twelve hours, cells were treated with araC and harvested one hour after addition of araC. The nucleotides were then separated using HPLC, and intracellular araCTP was quantified.
as §2

[5] = system: murine leukemia cells; conditions: murine leukemia cells treated for twelve hours with 6-MP; cited from earlier work
[6] = molecular target: T1, 30 kDa exonuclease (Homo sapiens, UniProt Q9NSU2); assay: in vitro enzyme inhibition of the 30 kDa 3'-5' exonuclease; format: biochemical; conditions: 30 kDa exonuclease purified from myeloblastic leukemia cells
T1 construct: endogenous in cells; host or cells: human myeloblastic leukemia cells (myeloblasts)
T1 sequence (Q9NSU2 1-314): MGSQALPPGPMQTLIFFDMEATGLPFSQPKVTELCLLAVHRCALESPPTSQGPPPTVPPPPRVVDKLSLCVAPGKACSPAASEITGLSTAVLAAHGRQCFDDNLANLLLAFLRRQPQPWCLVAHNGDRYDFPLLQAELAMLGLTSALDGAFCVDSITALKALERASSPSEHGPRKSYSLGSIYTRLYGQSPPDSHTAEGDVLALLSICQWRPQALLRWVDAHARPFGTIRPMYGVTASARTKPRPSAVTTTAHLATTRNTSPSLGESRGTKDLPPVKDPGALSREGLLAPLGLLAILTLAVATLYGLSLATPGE
Protocol: In order to assess the effect of intracellular TIMP that contributed to increased araC incorporation, exonuclease activity was partially purified from myeloblastic leukemia cells and in vitro enzyme inhibition studies ware carried out with TIMP. The majority of the cellular exonuclease activity was found in a band migrating on SDS-PAGE with a predicted molecular weight of 30 kDa.
Inhibition studies were also carried out with the purified 30 kD exonuclease and either TIMP or dGMP.
Useful methods in the practice of this example include the following: DNA pol δ may be purified from human myeloblasts using the methods of Syvaoja et al. (Proc. Natl. Acad. Sci., USA 87:6664-6668, 1990) through step 5. The specific activity of the DNA pol δ preparation is preferably about 3,500 units/mg. A unit of DNA pol δ catalyzes the incorporation of 1 nmol of total nucleotide per hour at 37° C. using 100 μM poly(dAdT) as template and reaction conditions as described by Lewis et al. (Biochemistry 33:14620-14624, 1994). […]
To measure the 3′-5′ exonuclease activity, a 23 mer is labeled with ^32P at the 5′ position and used in reactions as ssDNA. […] Samples are dried, resuspended in 5 μl 95% formamide, and analyzed by electrophoresis through 15% polyacrylamide sequencing gels. Radiolabeled bands are visualized and quantified by phosphorimagery (Molecular Dynamics). […]

[7] = system: exonuclease activity specifically associated with DNA polymerase δ; conditions: Lee, et al. Biochemistry 19:215-219 (1980); cited from earlier work
[8] = system: 30 kDa enzyme with 3'-5' exonuclease activity; assay: removal of 3' terminal araC from template primer by the 30 kDa exonuclease; format: biochemical, human, bovine; conditions: araC at the 3' terminus of the template primer
Text: For protein purification from bovine thymus, an additional step using phenyl SUPEROSE was employed. In order to detect exonuclease activity in the cell extract, a biochemical assay was developed using DNA polymerase a and an oligonucleotide template primer with an araC analog at the 3′ terminus. In this assay, incorporation of radiolabeled nucleotides into the araC-template primer by the polymerase first requires that the araC analog be removed by a 3′-5′ exonuclease.

[9] = system: 32P-labeled 23 nucleotide oligomer; assay: exonuclease activity of protein extracts of transformed BL21/DE3 cells; format: biochemical; conditions: protein extract of BL21/DE3 cells, IPTG induced
Protocol: To measure the 3′-5′ exonuclease activity, a 23 mer is labeled with ^32P at the 5′ position and used in reactions as ssDNA. Reaction mixtures (10 μl) are prepared containing 20 mM Tris-HCl, pH 7.5, 10 mM MgCl2, 2 mM DTT, 100 μg/mL BSA, 100 nM 23 mer, and 1 μl of the appropriate enzyme dilution. Incubation is 20 minutes at 37° C., and reactions are stopped by addition of 30 μl 95% ethanol. Samples are dried, resuspended in 5 μl 95% formamide, and analyzed by electrophoresis through 15% polyacrylamide sequencing gels. Radiolabeled bands are visualized and quantified by phosphorimagery (Molecular Dynamics). One unit of exonuclease is the amount of enzyme needed to degrade 1 pmol of 3′ termini in 1 min at 37° C.
The pTREX1h/T7 plasmid was electroporated into BL21/DE3 cells, which were grown at 23° C. to a density of OD595 0.3. Isopropylthiogalactopyranoside (IPTG) was added to induce overexpression and incubation of the cells was continued overnight. Protein extracts were prepared from the cells and enzyme activity assayed using a ^32P-labeled 23 nucleotide oligomer.
Template DNA was the mouse EST 480859. PCR was carried out as described for TREX1h and the resulting amplification product was subcloned as for TREX1h. The resulting expression plasmid was designated pTREX2m/T7 and expression of the encoded gene was carried out as described for TREX1h. […]

[10] = HL-60 cells pretreated with 6-MP relative to untreated cells, upon addition of araC

Molecule: Nc1ccn([C@@H]2O[C@H](CO)[C@@H](O)[C@@H]2O)c(=O)n1 [araC, 1-β-D-arabinofuranosylcytosine]
- apparent rate of araC removal by the exonuclease [8]: approximately the same rate as the rate of deoxynucleotide monophosphate removal

Molecule: Nc1nc2c(ncn2[C@H]2C[C@H](O)[C@@H](COP(=O)(O)O)O2)c(=O)[nH]1 [dGMP]
- Ki [6]: 56 µM

B1: TREX1h: human 3'-5' exonuclease polypeptide, SEQ ID NO:2, expressed from pTREX1h/T7 (protein)
chain: MGSQALPPGPMQTLIFFDMEATGLPFSQPKVTELCLLAVHRCALESPPTSQGPPPTVPPPPRVVDKLSLCVAPGKACSPAASEITGLSTAVLAAHGRQCFDDNLANLLLAFLRRQPQPWCLVAHNGDRYDFPLLQAELAMLGLTSALDGAFCVDSITALKALERASSPSEHGPRKSYSLGSIYTRLYGQSPPDSHTAEGDVLALLSICQWRPQALLRWVDAHARPFGTIRPMYGVTASARTKPRPSAVTTTAHLATTRNTSPSLGESRGTKDLPPVKDPGALSREGLLAPLGLLAILTLAVATLYGLSLATPGE
modifications: HOMO SAPIENS
- exonuclease activity versus control cells with parental vector only [9]: 30 fold

B2: TREX2m: murine 3'-5' exonuclease polypeptide, SEQ ID NO:32, expressed from pTREX2m/T7 (protein, listed as Mus musculus)
chain: MSEPPRAETFVFLDLEATGLPNMDPEIAEISLFAVHRSSLENPERDDSGSLVLPRVLDKLTLCMCPERPFTAKASEITGLSSESLMHCGKAGFNGAVVRTLQGFLSRQEGPICLVAHNGFDYDFPLLCTELQRLGAHLPQDTVCLDTLPALRGLDRAHSHGTRAQGRKSYSLASLFHRYFQAEPSAAHSAEGDVHTLLLIFLHRAPELLAWADEQARSWAHIEPMYVPPDGPSLEA
- exonuclease activity versus control cells with parental vector only [9]: 30 fold

The next lines start with results.

- time of peak intracellular TIMP concentration [3]: approximately twelve
- variation of intracellular araCTP levels during the time course [4]: less than two-fold
Molecule: Sc1ncnc2nc[nH]c12 [6-MP, 6-mercaptopurine]
- amount of araC incorporated into DNA [1, 10]: increased
- total DNA synthesis [1, 10]: decreased
- araC incorporation into DNA relative to total DNA synthesis, 6-MP treated vs untreated cells ([1]; HL-60 cells pretreated with 6-MP, at peak intracellular levels of TIMP, then araC): 20 fold
- cell killing [2]: increase in cell killing
- intracellular level of TIMP [5]: approximately 180 μM

- Ki [6]: 17 µM
Molecule: O=P(O)(O)OC[C@H]1O[C@@H](n2cnc3c(S)ncnc32)[C@H](O)[C@@H]1O [TIMP, thioinosine monophosphate]
- inhibition of DNA polymerase δ associated exonuclease activity [7]: inhibit exonuclease activity
